Reference: ChEMBL document CHEMBL1201862, “PubChem BioAssay data set” (2004)
Activity calls are given as the source filed them. How the calls were made is not given here.

How the values were obtained:
Assay type in all cases: functional
[1] = target: T1, Tyrosine-protein kinase JAK3 (Homo sapiens, UniProt P52333)
T1 sequence (P52333 whole entry): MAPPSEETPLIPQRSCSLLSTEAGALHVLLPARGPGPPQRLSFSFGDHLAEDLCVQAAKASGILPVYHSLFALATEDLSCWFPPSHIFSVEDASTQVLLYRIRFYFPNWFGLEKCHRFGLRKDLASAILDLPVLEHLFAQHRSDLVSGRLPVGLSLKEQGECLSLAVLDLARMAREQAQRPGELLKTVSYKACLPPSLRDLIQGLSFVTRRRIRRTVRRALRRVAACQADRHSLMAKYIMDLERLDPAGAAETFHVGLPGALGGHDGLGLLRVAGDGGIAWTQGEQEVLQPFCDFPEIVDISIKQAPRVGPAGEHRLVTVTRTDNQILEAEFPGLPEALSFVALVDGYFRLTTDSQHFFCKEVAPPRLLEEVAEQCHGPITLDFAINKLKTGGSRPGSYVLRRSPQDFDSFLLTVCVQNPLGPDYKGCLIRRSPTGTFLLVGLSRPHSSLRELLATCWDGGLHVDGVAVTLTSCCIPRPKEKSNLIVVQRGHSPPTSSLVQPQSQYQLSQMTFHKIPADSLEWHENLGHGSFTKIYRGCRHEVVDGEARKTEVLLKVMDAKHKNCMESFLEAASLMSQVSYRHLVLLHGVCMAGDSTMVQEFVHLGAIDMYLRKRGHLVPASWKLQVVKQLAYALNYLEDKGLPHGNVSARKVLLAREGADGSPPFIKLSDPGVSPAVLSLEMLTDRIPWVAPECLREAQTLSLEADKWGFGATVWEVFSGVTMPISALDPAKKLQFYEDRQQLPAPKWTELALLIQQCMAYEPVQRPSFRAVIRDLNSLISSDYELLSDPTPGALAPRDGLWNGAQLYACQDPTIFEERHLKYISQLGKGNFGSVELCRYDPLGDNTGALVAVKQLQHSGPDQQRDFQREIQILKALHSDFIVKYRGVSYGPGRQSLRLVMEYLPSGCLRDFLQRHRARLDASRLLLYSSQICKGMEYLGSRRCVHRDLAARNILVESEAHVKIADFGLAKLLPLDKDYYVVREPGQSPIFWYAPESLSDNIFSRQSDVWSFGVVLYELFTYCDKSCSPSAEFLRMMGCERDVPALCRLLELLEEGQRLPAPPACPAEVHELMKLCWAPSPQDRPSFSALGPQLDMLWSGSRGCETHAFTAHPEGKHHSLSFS

[2] = target: Dual specificity mitogen-activated protein kinase kinase 2 (Homo sapiens, UniProt P36507); assay: Navigating the Kinome. Panel member name: MAP2K2
Chain of Dual specificity mitogen-activated protein kinase kinase 2 (P36507 whole entry): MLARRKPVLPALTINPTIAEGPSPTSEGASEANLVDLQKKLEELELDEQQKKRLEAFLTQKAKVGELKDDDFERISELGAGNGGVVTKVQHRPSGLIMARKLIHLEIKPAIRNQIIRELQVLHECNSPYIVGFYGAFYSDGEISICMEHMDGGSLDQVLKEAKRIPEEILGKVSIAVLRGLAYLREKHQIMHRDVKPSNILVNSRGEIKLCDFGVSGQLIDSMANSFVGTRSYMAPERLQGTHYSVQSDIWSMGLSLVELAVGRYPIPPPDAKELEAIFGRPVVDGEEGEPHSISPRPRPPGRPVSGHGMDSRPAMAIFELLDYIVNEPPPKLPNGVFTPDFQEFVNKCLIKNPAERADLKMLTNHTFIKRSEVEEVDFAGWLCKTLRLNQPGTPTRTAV

[3] = target: T2, Serine/threonine-protein kinase TAO1 (Homo sapiens, UniProt Q7L7X3)
T2 sequence (Q7L7X3 whole entry): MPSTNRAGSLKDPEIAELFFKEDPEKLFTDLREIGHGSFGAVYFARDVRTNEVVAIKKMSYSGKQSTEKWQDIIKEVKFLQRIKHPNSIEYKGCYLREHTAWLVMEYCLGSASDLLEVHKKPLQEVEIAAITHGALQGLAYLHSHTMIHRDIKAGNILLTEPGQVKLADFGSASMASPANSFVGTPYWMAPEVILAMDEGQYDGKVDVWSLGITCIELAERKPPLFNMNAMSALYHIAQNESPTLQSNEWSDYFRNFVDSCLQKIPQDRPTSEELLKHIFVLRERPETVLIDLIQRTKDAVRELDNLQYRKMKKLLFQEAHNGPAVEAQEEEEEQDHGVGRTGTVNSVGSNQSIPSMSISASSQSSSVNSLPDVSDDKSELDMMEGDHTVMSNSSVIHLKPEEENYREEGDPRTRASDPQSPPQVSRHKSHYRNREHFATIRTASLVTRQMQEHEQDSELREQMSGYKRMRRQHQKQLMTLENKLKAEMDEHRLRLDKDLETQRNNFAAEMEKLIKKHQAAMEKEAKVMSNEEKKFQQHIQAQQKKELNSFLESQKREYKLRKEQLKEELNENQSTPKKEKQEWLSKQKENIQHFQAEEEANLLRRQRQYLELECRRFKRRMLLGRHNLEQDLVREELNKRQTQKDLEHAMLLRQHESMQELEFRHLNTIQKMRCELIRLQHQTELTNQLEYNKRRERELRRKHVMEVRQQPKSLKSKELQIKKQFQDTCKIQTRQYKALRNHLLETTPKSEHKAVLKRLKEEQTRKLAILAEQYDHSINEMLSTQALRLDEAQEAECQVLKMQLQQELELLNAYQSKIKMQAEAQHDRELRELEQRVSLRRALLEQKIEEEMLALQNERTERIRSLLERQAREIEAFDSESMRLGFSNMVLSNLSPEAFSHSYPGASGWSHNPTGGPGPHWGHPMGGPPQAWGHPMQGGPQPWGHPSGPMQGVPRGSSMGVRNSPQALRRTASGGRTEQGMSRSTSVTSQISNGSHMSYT

[4] = target: Macrophage colony-stimulating factor 1 receptor (Homo sapiens, UniProt P07333);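 further: value comes from the Navigating the Kinome screening panel, CSF1R member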
Chain of Macrophage colony-stimulating factor 1 receptor (P07333 whole entry): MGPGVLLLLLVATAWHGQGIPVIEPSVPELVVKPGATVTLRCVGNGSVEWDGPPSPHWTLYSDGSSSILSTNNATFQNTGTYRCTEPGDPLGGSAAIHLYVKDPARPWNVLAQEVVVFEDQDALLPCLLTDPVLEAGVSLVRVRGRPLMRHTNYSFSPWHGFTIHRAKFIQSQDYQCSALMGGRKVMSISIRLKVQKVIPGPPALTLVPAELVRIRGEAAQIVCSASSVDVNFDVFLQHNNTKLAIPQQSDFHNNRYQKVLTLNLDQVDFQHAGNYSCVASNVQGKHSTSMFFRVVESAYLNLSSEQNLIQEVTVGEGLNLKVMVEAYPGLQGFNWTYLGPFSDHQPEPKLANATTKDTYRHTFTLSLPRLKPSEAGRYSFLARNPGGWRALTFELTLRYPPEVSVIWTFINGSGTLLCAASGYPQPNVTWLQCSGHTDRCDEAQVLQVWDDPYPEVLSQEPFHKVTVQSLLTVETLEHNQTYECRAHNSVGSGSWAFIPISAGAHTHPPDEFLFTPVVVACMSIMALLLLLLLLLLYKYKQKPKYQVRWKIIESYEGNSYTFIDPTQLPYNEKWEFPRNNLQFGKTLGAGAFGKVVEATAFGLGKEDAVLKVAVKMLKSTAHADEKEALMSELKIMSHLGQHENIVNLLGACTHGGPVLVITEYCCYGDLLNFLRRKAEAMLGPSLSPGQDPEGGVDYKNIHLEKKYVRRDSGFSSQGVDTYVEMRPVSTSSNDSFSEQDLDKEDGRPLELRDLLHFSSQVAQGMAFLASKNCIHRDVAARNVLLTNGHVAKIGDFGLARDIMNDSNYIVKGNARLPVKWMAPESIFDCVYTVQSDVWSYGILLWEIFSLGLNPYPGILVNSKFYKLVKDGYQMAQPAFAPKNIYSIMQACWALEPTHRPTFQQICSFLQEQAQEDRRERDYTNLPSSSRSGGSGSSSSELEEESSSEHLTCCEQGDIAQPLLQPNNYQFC

[5] = target: Dual specificity tyrosine-phosphorylation-regulated kinase 1A (Homo sapiens, UniProt Q13627);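 further: measured against DYRK1A as one member of a broad kinome profiling panel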
[6] = target: T3, cAMP-dependent protein kinase catalytic subunit PRKX (Homo sapiens, UniProt P51817)
T3 sequence (P51817 whole entry): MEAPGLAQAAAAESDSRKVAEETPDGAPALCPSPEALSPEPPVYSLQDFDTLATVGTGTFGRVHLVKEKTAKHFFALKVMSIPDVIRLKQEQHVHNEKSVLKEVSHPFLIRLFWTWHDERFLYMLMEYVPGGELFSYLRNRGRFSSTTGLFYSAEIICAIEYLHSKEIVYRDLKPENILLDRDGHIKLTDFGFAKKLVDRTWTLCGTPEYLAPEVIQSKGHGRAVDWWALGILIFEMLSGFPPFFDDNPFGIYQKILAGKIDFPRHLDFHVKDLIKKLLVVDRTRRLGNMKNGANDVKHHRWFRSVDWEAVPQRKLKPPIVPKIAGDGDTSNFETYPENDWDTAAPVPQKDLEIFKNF

[7] = target: Mitogen-activated protein kinase 8 (Homo sapiens, UniProt P45983);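 further: value comes from one member of a kinome-wide kinase profiling panel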
Chain of Mitogen-activated protein kinase 8 (P45983 whole entry): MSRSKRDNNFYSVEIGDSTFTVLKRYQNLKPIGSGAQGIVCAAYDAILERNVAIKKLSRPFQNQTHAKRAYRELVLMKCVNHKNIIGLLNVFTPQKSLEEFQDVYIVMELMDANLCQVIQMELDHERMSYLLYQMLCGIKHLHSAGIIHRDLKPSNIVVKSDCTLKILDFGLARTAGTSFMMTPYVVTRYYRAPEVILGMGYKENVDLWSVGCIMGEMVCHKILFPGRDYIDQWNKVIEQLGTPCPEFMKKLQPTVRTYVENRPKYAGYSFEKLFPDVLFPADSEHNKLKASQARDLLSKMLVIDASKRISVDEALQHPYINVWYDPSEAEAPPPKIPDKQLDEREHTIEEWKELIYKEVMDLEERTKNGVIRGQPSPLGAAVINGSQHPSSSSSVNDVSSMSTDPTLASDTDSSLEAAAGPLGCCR

[8] = target: Rho-associated protein kinase 1 (Homo sapiens, UniProt Q13464);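 further: measured within a broad kinome-wide panel profiling many kinases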
Chain of Rho-associated protein kinase 1 (Q13464 whole entry): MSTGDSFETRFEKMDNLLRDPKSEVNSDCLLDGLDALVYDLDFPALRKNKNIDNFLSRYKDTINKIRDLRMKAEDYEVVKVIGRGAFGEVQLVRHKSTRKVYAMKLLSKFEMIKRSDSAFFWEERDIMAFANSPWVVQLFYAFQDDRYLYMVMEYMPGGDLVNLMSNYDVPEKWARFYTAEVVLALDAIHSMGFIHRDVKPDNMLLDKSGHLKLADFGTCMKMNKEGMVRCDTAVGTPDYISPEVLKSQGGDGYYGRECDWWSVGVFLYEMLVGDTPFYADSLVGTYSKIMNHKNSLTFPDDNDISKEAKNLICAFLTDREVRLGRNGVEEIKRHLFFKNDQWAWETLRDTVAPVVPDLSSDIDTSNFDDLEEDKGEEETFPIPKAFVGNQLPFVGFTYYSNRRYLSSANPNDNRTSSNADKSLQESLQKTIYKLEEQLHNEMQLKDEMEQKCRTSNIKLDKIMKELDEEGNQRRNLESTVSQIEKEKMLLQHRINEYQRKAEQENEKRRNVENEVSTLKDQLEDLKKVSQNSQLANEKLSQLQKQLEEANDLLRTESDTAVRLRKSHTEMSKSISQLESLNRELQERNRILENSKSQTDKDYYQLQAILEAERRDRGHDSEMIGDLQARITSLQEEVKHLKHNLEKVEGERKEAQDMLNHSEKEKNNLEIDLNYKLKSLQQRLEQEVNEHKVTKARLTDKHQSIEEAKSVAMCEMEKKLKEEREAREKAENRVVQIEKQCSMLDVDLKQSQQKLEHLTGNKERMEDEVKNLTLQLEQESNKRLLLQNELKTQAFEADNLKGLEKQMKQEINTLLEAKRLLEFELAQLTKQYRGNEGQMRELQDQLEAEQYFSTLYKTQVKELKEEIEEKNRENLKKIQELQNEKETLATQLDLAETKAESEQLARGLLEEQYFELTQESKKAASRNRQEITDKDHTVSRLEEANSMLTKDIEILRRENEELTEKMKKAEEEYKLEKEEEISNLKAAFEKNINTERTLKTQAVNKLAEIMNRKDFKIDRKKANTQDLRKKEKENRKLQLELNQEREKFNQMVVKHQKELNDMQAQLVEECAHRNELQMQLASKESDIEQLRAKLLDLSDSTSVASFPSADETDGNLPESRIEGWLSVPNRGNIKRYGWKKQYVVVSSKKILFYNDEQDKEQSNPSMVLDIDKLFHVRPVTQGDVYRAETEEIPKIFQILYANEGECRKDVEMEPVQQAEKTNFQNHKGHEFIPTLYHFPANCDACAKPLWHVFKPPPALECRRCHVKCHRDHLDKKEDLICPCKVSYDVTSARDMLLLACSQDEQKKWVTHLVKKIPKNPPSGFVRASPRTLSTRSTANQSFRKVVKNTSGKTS

[9] = target: G protein-coupled receptor kinase 5 (Homo sapiens, UniProt P34947); assay: Navigating the Kinome. Panel member name: GPRK5
Chain of G protein-coupled receptor kinase 5 (P34947 whole entry): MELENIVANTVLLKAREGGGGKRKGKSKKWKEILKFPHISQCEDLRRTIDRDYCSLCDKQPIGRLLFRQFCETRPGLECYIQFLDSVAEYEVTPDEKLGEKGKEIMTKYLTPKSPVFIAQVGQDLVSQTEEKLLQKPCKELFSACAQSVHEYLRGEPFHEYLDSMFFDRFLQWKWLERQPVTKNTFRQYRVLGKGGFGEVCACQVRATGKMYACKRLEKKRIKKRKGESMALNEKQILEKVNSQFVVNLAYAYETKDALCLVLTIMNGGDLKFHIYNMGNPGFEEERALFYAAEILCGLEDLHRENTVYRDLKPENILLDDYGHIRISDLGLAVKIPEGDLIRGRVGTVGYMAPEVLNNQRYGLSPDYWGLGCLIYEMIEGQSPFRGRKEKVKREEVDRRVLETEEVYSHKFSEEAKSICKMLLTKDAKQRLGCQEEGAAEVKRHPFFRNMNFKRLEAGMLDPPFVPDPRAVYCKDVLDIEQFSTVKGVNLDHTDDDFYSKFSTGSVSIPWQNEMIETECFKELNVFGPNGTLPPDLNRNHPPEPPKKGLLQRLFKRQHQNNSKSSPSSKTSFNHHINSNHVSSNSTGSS

[10] = target: Fibroblast growth factor receptor 1 (Homo sapiens, UniProt P11362)
Chain of Fibroblast growth factor receptor 1 (P11362 whole entry): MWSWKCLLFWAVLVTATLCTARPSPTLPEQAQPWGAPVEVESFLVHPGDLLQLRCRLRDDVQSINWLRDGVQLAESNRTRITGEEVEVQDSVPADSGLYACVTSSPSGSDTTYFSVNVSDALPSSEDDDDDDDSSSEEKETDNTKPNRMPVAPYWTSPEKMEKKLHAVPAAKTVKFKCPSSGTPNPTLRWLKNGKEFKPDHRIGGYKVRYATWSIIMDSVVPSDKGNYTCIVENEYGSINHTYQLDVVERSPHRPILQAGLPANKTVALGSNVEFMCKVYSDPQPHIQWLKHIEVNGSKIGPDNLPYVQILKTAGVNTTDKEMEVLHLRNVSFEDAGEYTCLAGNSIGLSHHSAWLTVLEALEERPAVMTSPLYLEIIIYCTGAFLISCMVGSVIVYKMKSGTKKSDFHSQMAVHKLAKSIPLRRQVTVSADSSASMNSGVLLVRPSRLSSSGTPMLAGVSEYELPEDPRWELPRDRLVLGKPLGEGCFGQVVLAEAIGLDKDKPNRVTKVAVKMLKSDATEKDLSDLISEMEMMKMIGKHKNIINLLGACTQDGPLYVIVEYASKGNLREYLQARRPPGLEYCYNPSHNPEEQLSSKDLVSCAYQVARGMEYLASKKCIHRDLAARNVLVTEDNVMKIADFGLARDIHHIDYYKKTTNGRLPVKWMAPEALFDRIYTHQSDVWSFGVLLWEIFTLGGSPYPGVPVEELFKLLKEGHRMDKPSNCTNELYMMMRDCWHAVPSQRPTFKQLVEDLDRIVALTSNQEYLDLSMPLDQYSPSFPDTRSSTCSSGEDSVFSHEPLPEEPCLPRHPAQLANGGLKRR

[11] = target: Cyclin-dependent kinase 5 (Homo sapiens, UniProt Q00535);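 further: CDK5 measured as one member of a kinase profiling panel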
Chain of Cyclin-dependent kinase 5 (Q00535 whole entry): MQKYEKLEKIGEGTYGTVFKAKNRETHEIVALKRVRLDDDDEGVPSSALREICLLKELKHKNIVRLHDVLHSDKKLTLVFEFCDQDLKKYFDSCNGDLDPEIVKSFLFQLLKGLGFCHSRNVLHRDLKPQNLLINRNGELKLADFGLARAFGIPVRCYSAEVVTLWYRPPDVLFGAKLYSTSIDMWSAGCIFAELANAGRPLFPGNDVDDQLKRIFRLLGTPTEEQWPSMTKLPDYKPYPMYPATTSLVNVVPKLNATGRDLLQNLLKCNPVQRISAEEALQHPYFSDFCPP

Ki [1] | Ki [2] | Ki [3] | Ki [4] | Ki [5] | Ki [6] | Ki [7] | Ki [8] | Ki [9] | Ki [10] | Ki [11] | Compound | also measured
> 5.01 µM (inactive) | > 3.98 µM (inactive) | > 6.31 µM (inactive) | > 2.51 µM (inactive) | > 2 µM (inactive) | 2 µM (active) | > 5.01 µM (inactive) | 25.1 nM (active) | 3.98 µM (active) | > 3.98 µM (inactive) | > 3.16 µM (inactive) | COc1cccc(CNC(=O)c2cnc(-c3ccncc3)nc2)c1 | 
0.0501 µM (active) | 0.0501 µM (active) | 0.501 µM (active) | 0.2 µM (active) | > 0.002 µM (inactive) | 0.0631 µM (active) | 0.251 µM (active) | 7.94 nM (active) | 1.58 µM (active) | 2 µM (active) | 0.01 µM (active) | OC1CCC(Nc2nc(Cl)cc(-c3c[nH]c4ncccc34)n2)CC1 (configuration not stated) | pKi [1]: 7.3; pKi [2]: 7.3; pKi [3]: 6.3; pKi [4]: 6.7; pKi [6]: 7.2; pKi [7]: 6.6; pKi [8]: 8.1; pKi [9]: 5.8; pKi [10]: 5.7; pKi [11]: 8
